Active and inactive are the calls of the source. The rule behind the calls is not given here.
Key:
Format in all cases: cell-based
Adenylate cyclase type 8 [1] = target: T1, Adenylate cyclase type 8 (Homo sapiens, UniProt P40145); assay: Agonist activity at recombinant human AC8 expressed in human HEK293 cells assessed as fold increase in cAMP level by LANCE Ultra cAMP Detection kit method
Adenylate cyclase type 8 [2] = target: T1, Adenylate cyclase type 8; assay: Agonist activity at recombinant human AC8 expressed in human HEK293 cells assessed as fold increase in cAMP level at 50 uM by LANCE Ultra cAMP Detection kit method relative to control
[3] = target: Adenylate cyclase type 5 (Homo sapiens) (UniProt O95622); assay: Agonist activity at recombinant human AC5 expressed in human HEK293 cells assessed as increase in cAMP level at 50 uM by LANCE Ultra cAMP Detection kit method
Adenylate cyclase type 5 (Homo sapiens), sequence (O95622 whole entry, looked up): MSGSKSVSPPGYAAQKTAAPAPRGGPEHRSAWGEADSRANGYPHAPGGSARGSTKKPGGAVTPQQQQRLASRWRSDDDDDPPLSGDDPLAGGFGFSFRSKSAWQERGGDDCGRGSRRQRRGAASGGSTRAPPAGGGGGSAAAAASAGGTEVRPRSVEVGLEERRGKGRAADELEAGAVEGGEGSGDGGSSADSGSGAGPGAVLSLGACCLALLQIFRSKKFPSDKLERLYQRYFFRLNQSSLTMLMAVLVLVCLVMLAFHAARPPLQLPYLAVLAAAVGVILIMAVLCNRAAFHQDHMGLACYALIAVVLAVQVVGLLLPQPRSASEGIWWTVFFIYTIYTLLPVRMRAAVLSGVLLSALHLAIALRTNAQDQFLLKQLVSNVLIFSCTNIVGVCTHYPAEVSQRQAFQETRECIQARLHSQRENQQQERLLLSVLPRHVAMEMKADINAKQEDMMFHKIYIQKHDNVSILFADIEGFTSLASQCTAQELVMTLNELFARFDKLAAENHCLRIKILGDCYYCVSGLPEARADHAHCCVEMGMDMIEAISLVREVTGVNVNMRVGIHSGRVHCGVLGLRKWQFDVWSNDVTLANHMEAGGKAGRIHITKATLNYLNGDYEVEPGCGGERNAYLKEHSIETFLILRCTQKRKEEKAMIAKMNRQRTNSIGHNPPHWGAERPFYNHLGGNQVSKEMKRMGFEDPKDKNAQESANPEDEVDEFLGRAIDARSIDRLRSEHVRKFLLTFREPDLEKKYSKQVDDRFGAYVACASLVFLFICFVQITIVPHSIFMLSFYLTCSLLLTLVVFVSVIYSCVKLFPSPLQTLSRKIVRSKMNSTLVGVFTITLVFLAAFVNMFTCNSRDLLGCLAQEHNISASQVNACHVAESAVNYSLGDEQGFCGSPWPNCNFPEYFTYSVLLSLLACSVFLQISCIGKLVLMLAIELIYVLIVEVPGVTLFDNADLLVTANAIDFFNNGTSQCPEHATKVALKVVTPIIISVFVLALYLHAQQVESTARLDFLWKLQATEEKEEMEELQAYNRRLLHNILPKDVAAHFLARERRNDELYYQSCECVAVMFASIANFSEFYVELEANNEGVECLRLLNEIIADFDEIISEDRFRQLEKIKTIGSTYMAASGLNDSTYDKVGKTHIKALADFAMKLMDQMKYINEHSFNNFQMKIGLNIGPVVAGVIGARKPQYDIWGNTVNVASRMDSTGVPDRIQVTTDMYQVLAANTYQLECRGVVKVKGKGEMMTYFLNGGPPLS

[4] = target: Adenylate cyclase type 1 (Homo sapiens) (UniProt Q08828); assay: Agonist activity at recombinant human AC1 expressed in human HEK293 cells assessed as increase in cAMP level at 50 uM by LANCE Ultra cAMP Detection kit
Adenylate cyclase type 1 (Homo sapiens), sequence (Q08828 whole entry, looked up): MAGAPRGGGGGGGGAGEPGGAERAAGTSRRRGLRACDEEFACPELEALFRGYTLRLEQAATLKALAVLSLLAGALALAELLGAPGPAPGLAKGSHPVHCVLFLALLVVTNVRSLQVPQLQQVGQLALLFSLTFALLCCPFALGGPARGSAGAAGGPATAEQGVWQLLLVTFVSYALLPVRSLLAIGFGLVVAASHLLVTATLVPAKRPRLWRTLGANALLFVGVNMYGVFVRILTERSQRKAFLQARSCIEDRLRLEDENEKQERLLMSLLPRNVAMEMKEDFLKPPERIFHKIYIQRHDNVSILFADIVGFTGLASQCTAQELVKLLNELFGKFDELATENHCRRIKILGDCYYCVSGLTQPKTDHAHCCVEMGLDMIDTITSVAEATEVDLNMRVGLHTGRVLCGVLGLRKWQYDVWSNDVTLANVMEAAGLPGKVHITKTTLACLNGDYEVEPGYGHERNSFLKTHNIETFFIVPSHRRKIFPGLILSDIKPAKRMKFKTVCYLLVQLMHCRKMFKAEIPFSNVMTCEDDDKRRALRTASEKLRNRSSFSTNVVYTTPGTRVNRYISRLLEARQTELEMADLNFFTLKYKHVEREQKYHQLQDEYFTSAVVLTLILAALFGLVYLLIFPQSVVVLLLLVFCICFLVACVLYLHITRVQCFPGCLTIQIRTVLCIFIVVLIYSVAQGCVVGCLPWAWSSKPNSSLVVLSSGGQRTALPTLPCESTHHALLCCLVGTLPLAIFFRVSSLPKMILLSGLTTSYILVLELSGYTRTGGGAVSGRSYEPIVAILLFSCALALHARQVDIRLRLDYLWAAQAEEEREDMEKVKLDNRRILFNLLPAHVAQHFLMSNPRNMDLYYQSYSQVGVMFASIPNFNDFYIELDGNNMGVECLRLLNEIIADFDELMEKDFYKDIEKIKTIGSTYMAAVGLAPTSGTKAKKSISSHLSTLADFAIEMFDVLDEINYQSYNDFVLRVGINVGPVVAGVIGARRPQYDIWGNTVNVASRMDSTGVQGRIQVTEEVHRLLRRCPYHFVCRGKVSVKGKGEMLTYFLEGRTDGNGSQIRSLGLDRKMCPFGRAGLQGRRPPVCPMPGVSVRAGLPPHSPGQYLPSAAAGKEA

[5] = target: Adenylate cyclase type 2 (Homo sapiens) (UniProt Q08462); assay: Agonist activity at recombinant human AC2 expressed in human HEK293 cells assessed as increase in cAMP level at 50 uM by LANCE Ultra cAMP Detection kit method
Adenylate cyclase type 2 (Homo sapiens), sequence (Q08462 whole entry): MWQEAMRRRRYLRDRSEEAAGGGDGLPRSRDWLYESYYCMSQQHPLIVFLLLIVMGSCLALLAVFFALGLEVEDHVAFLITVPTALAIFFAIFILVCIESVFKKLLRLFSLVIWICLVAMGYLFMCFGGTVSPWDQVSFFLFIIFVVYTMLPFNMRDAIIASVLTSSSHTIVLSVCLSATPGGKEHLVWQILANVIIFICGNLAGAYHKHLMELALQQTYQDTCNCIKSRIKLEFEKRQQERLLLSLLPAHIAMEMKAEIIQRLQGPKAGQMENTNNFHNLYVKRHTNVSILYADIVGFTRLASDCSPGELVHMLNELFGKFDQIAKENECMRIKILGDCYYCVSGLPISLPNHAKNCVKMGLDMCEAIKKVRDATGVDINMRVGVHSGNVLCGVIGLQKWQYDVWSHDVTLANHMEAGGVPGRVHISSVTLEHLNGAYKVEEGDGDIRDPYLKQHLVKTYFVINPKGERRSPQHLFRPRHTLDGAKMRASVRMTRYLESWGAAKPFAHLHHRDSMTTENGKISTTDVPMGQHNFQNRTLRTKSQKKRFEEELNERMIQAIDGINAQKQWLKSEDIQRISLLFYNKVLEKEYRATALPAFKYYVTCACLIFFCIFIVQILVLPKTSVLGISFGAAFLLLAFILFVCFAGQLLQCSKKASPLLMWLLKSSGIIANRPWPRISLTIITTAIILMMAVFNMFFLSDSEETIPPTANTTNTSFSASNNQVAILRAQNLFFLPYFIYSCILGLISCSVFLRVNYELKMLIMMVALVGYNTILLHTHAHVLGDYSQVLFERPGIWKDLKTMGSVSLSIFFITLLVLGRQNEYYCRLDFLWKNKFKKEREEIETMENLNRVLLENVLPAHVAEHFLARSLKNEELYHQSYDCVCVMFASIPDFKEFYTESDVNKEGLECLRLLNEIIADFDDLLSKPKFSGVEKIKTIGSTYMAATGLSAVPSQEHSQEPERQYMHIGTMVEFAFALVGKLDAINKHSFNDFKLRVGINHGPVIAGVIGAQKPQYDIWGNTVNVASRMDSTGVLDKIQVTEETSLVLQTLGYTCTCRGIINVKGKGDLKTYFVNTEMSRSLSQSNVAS

T1 sequence (P40145 whole entry): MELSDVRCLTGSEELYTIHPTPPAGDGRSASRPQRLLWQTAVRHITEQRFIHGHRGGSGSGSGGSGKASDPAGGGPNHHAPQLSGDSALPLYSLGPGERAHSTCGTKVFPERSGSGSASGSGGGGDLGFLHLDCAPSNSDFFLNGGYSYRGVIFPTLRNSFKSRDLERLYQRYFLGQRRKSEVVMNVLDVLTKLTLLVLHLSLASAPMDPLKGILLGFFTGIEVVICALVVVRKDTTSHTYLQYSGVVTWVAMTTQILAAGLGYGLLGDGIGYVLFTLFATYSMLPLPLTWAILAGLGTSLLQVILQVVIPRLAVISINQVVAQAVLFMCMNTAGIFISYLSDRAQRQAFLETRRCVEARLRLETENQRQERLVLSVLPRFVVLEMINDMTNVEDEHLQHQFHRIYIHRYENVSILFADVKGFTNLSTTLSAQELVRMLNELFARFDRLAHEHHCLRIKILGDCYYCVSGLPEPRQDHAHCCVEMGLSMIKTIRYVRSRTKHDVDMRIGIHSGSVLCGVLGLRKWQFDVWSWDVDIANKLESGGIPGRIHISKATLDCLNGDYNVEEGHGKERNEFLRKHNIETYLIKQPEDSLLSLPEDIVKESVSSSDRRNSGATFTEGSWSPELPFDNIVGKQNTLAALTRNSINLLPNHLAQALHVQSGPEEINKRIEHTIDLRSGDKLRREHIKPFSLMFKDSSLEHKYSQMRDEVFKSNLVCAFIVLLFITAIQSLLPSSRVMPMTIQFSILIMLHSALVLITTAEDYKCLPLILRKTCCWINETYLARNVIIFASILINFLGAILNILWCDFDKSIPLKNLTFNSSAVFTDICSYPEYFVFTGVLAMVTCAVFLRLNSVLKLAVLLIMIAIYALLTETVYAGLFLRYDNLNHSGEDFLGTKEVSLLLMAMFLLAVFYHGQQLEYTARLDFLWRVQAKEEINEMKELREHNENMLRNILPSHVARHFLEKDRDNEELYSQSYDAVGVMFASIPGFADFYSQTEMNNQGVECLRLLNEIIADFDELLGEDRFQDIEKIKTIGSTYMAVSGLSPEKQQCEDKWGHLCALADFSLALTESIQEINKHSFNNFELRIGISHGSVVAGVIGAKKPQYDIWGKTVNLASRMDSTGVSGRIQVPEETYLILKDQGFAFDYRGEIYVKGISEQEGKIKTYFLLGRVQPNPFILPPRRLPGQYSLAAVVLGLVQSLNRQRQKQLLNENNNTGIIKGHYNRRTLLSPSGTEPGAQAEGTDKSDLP

## C=C[C@@]1(C)CC(=O)[C@]2(O)[C@@]3(C)[C@@H](O)CCC(C)(C)[C@@H]3[C@H](O)[C@H](OC(C)=O)[C@@]2(C)O1 [COLFORSIN]
Adenylate cyclase type 8 [1]
  EC50: 93.7 nM
Adenylate cyclase type 8 [2]
  fold change (FC): 35

## CCOC(=O)C1(Cc2ccc(Cl)cc2Cl)C(=O)Nc2ccccc21 (stereo not drawn)
Adenylate cyclase type 8 [1]
  Activity: Dose-dependent effect
  EC50: 105 nM
[3]
  Activity: inactive
[4]
  Activity: inactive
Adenylate cyclase type 8 [2]
  fold change (FC): 33
[5]
  Activity: inactive

Source: ChEMBL document CHEMBL4602624, “Discovery of a potent and selective adenylyl cyclase type 8 agonist by docking-based virtual screening” (Bioorg Med Chem Lett, 2020)
